Measurements reported in patent US8080549B2, “Endothelin receptor antagonists” (CoNCERT Pharmaceuticals, Inc., priority 2007, dated 2011).
Read-outs that look alike come from different tables or passages of the source.

Tests used:
CYP3A4 = molecular target: T1, CYP3A4 (Homo sapiens, UniProt P08684); test: Metabolic stability in CYP3A4 Supersomes; assay type: in vitro ADME; conditions: human, recombinant CYP3A4 Supersomes, 1 μM test compound
T1 construct: purchased BD Gentest
Procedure: (§1) Materials: CYP3A4 Supersomes™ were obtained from BD Gentest. β-nicotinamide adenine dinucleotide phosphate, reduced form (NADPH), magnesium chloride (MgCl2), and dimethyl sulfoxide (DMSO) were purchased from Sigma-Aldrich.
(§2) Determination of Metabolic Stability: 7.5 mM stock solutions of test compounds were prepared in DMSO. The 7.5 mM stock solutions were diluted to 50 μM in acetonitrile (ACN). The 1000 pmol/mL CYP3A4 supersomes were diluted to 50 pmol/mL in 0.1 M potassium phosphate buffer, pH 7.4, containing 3 mM MgCl2. The diluted supersomes were added to wells of a 96-well deep-well polypropylene plate in triplicate. 10 μL of the 50 μM test compound was added to the supersomes and the mixture was pre-warmed for 10 minutes. Reactions were initiated by addition of pre-warmed NADPH solution. The final reaction volume was 0.5 mL and contained 40 pmol/mL CYP3A4 supersomes, 1 μM test compound, and 2 mM NADPH in 0.1 M potassium phosphate buffer, pH 7.4, and 3 mM MgCl2. The reaction mixtures were incubated at 37° C. and 50 μL aliquots were removed at 0, 5, 10, 20, and 30 minutes and added to shallow-well 96-well plates which contained 50 μL of ice-cold ACN with internal standard to stop the reactions. The plates were stored at 4° C. for 20 minutes after which 100 μL of water was added to the wells of the plate before centrifugation to pellet precipitated proteins. Supernatants were transferred to another 96-well plate and analyzed for amounts of parent remaining by LC-MS/MS using an Applied Bio-systems API 4000 mass spectrometer.
(§3) Data analysis: The in vitro t1/2s for test compounds were calculated from the slopes of the linear regression of % parent remaining (ln) vs incubation time relationship. • in vitro t1/2=0.693/k • k=−[slope of linear regression of % parent remaining(ln) vs incubation time]
(§4) Data analysis was performed using Microsoft Excel Software.

CYP3A4 supersomes = molecular target: T2, CYP3A4 supersomes (Homo sapiens, UniProt P08684); test: Metabolic stability in CYP3A4 Supersomes; assay type: in vitro ADME; conditions: for increase of in vitro t1/2 over non-deuterated bosentan: CYP3A4 supersomes, under the assay conditions tested, approximate values; for % Difference: [(deuterated species) − (nondeuterated species)](100)/(nondeuterated species), of Ave t1/2 vs bosentan
T2 construct: purchased BD Gentest
Procedure: as §1, §2, §3, §4

[1] = active metabolite of bosentan; cited from earlier work
[2] = pH 7.4, average of Experiments 1 and 2, CYP3A4 supersomes, read-out: Ave t1/2
[3] = pH 7.4, in vitro half-life, 40 pmol/mL CYP3A4 supersomes, 2 mM NADPH, pH 7.4, 37° C., 0-30 minutes, Experiment 1, read-out: t1/2 (minutes) Experiment 1
[4] = pH 7.4, in vitro half-life, 40 pmol/mL CYP3A4 supersomes, 2 mM NADPH, pH 7.4, 37° C., 0-30 minutes, Experiment 2, read-out: t1/2 (minutes) Experiment 2

T2 sequence (P08684 whole entry): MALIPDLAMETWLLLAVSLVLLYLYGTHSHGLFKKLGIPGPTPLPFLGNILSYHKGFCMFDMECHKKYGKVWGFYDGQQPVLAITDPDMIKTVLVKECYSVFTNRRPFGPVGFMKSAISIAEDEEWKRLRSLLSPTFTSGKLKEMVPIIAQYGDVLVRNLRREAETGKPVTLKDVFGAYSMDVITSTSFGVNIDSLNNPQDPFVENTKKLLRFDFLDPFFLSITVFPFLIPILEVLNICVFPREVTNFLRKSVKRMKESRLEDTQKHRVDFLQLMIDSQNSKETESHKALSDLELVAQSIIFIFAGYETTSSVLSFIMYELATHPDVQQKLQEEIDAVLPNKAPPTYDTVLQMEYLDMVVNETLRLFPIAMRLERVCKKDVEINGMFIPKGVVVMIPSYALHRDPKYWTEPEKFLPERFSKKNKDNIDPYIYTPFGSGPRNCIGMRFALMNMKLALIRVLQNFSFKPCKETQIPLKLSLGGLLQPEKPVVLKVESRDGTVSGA
T1 sequence (P08684 whole entry): as above

Row | Structure (SMILES) | half-life at 1 μM (CYP3A4; [2]) | half-life at 1 μM (CYP3A4; [3]) | half-life at 1 μM (CYP3A4; [4]) | increase of in vitro t1/2 over non-deuterated bosentan (CYP3A4 supersomes) | % Difference (CYP3A4 supersomes) | share of the overall pharmaceutical properties of bosentan [1]
1 | COc1ccccc1Oc1c(NS(=O)(=O)c2ccc(C(C)(C)C)cc2)nc(-c2ncccn2)nc1OCCO [Bosentan, N[6-(2-hydroxyethoxy)-5-(2-methoxyphenoxy)-2-pyrimidin-2-yl-pyrimidin-4-yl]-4-tert-butyl-benzenesulfonamide, reference compound] | 35.8 min | 34.3 min | 37.2 min | – | – | –
2 | [2H]C([2H])([2H])Oc1ccccc1Oc1c(NS(=O)(=O)c2ccc(C(C([2H])([2H])[2H])(C([2H])([2H])[2H])C([2H])([2H])[2H])cc2)nc(-c2ncccn2)nc1OCCO [Compound 101, 4-(tert-Butyl-d9)-N-(6-(2-hydroxyethoxy)-5-(2-(methoxy-d3)-phenoxy)-2,2′-bipyrimidin-4-yl)benzenesulfonamide] | 41.2 min | 41 min | 41.3 min | ~15% | 15.1% | –
3 | [2H]C([2H])(O)COc1nc(-c2ncccn2)nc(NS(=O)(=O)c2ccc(C(C)(C)C)cc2)c1Oc1ccccc1OC [Compound 104, 4-tert-Butyl-N-(6-(2-hydroxy-2,2-d2-ethoxy)-5-(2-methoxyphenoxy)-2,2′-bipyrimidin-4-yl)benzenesulfonamide] | 31.6 min | 30.9 min | 32.4 min | – | −11.7% | –
4 | COc1ccccc1Oc1c(NS(=O)(=O)c2ccc(C(C)(C)CO)cc2)nc(-c2ncccn2)nc1OCCO [hydroxybosentan] | – | – | – | – | – | up to 20%
5 | [2H]C([2H])([2H])Oc1ccccc1Oc1c(NS(=O)(=O)c2ccc(C(C)(C)C)cc2)nc(-c2ncccn2)nc1OCCO [Compound 102, 4-tert-Butyl-N-(6-(2-hydroxyethoxy)-5-(2-(methoxy-d3)-phenoxy)-2,2′-bipyrimidin-4-yl)benzenesulfonamide] | 46.2 min | 45.7 min | 46.8 min | ~29% | 29.1% | –
6 | [2H]C([2H])(O)COc1nc(-c2ncccn2)nc(NS(=O)(=O)c2ccc(C(C([2H])([2H])[2H])(C([2H])([2H])[2H])C([2H])([2H])[2H])cc2)c1Oc1ccccc1OC([2H])([2H])[2H] [Compound 106, 4-(tert-Butyl-d9)-N-(6-(2-hydroxy-2,2-d2-ethoxy)-5-(2-(methoxy-d3)phenoxy)-2,2′-bipyrimidin-4-yl)benzenesulfonamide] | 55.2 min | 53.3 min | 57.2 min | ~54% | 54.2% | –
7 | [2H]C([2H])([2H])C(c1ccc(S(=O)(=O)Nc2nc(-c3ncccn3)nc(OCCO)c2Oc2ccccc2OC)cc1)(C([2H])([2H])[2H])C([2H])([2H])[2H] [Compound 103, 4-(tert-Butyl-d9)-N-(6-(-2-hydroxyethoxy)-5-(2-methoxyphenoxy)-2,2′-bipyrimidin-4-yl)benzenesulfonamide] | 38.2 min | 35.9 min | 40.5 min | – | 6.7% | –
